Source: patent publication US12281328B2, “Photoreceptor cells for the treatment of retinal diseases” (Hadasit Medical Research Services and Development Ltd., priority 2017, dated 2025)

Tested on: hESC-derived spheroid bodies (SBs), HAD-C102
Experiment: Real-time PCR of eye field, retinal progenitor and photoreceptor progenitor markers in SBs cultured with factor combinations
Assay type: cell-based, human
Method: SBs were generated under non-adherent conditions (day 0) from cord-feeder-conditioned media culture systems, or from feeder free laminin 521 culture systems, as described above. SBs were cultured in the following medium: […]® minus medium (Biological industries, Beit Haemek, Israel) supplemented with 50 U/ml penicillin and 50 μg/ml streptomycin (Gibco-BRL, Carlsbad, Calif.). In the initial 0 to 6 days of SBs culture (under non-adherent conditions), the medium was supplemented with 10 mM nicotinamide (Sigma, St. Louis, Mo.). It was further supplemented with the addition of the following factors in different combinations: 10 mM nicotinamide (Sigma, St. Louis, Mo.), 3 μM endo-IWR 1 (IWR1e; TOCRIS, a biotechne brand, Minneapolis, Minn.), 20 ng/ml bFGF (PeproTech Inc., Rocky Hill, N.J.), 5 ng/ml IGF1 (R&D Systems Inc., Minneapolis, Minn.) and 3 μM CHIR99021 (CHIR; PeproTech Inc., Rocky Hill, N.J.).
Real-time PCR was used to determine the expression of eye field and retinal progenitor markers and photoreceptor progenitor markers. mRNA was extracted using QUICK-RNA Micro Prep, Zymo Research (Cat #R1051) and the RT reaction was accomplished with QSCRIPT™ reverse transcriptase (Quanta BioScience Inc., Gaithersburg, Md.). The levels of transcripts were monitored using commercially available TAQMAN™ Assay-on-Demand Gene Expression Products (Applies Biosystems, Foster City, Calif.). The expression of eye field and photoreceptor precursor markers were analyzed at time points of 14 days to 8 weeks. At Time point 0 (TO), the derivation of SBs and the beginning of their culture in non-adherent culture dishes were initiated.
SBs were treated with combinations of NIC, bFGF, CHIR and IGF1 for 1 month. At the end of these culture periods, the expression of eye field and retinal progenitor markers (Rx, Six3, Six6, Chx10) and photoreceptor progenitor markers (NRL, CRX) was analyzed by Real-time PCR. […] FIG. 3 through FIG. 8 show graphs illustrating marker expression of Six3, Six6, Chx10, Rx, CRX, and NRL, respectively, in SBs cultured in NIC+bFGF or NIC+IGF or NIC+bFGF+CHIR for 4 weeks. Relative quantity of gene expression is plotted against different conditions. FIG. 9 through FIG. 14 show graphs illustrating marker expression of Six3, Six6, Chx10, Rx, CRX, and NRL, respectively, in SBs cultured in NIC+bFGF or NIC+bFGF+CHIR for 17 days. The control, HADC102, was comprised of undifferentiated HAD-C102 cells cultured for 6-7 days in […]® hPSC XF*Xeno-free medium for Human Pluripotent Stem Cells (Biological Industries).

Compound: O=C(Nc1cccc2cccnc12)c1ccc(N2C(=O)[C@@H]3[C@H](C2=O)[C@@H]2C=C[C@H]3C2)cc1 [IWR1e, 4-[(3aR,4S,7R,7aS)-1,3,3a,4,7,7a-hexahydro-1,3-dioxo-4,7-metha-no-2H-isoindol-2-yl]-N-8-quinolinyl-benzamide]
- expression of markers of hESC-derived photoreceptor progenitors (SBs cultured 20 days, Pax6, Six3, Rx, Six6, Chx10, FIG. 21-25): induced the expression of markers of hESC-derived photoreceptor progenitors
- expression of the eye field and retinal progenitor markers Pax6, Rx, Six3, Six6 and Chx10 (compared among NIC+IWR1e, NIC, IWR1e, IWR1e+bFGF, FIG. 26-35): much lower

Compound: Laminin 521: laminin 521 (BioLamina) coating for feeder-free culture of hESCs before SB formation
- expression of all the markers analyzed (Rx, Pax6, Six3, Six6, Chx10) (SBs from hESCs cultured on laminin 521 vs gelatin in cord feeder conditioned medium, NIH 5 weeks, FIG. 50-58): higher
- efficiency of differentiation (initial culturing of hESC on laminin 521 vs gelatin in feeder cell conditioned medium): more efficient differentiation result

Compound: NC(=O)c1cccnc1 [NIC, nicotinamide]
- generation of photoreceptor cells from human pluripotent stem cells (evidenced by expression of markers of photoreceptor cells (RT-PCR)): sufficient to generate photoreceptor cells from human pluripotent stem cells
